# Test results: patent publication US9789096B2, “Methods and compositions for selective and targeted cancer therapy” (Board of Regents of the University of Texas System, priority 2013, dated 2017)
# Read-outs that look alike come from different tables or passages of the source.
# Tests used:
# [1] = tested on: HCC4017; assay: Cell viability dose-response, HCC4017; format: cell-based, human; conditions: Homo sapiens, HCC4017, Tables 3 and 4; read-out: IC50 (uM) vs indicated non-small cell lung cancer cell line HCC4017
# Method: (§1) FIG. 6A. […] Cell viability is plotted vs. compound concentration. Compound was added to cells plated at 15% confluence in 96-well plates in RPMI-1640 media supplemented with 5% Fetal Bovine Serum and 2 mM L-Glutamine. After 4 days of incubation, ATP levels were measured using Cell Titer Glo (Promega). Data are presented as the average of 2 replicates ±SEM.
# (§2) Selectivity may be measured by the half maximal inhibitory concentration (IC50), which, as used herein, is a measure of the effectiveness of a compound in killing cells. This quantitative measure indicates how much of a particular compound is needed to kill a particular cell population by half (e.g., as indicated by the amount of ATP). […] The IC50 can be determined by constructing a dose-response curve. The lower the IC50, the higher the potency, and the greater the difference between IC50 values for different cell lines (e.g., sensitive lines vs. insensitive lines, and sensitive lines vs. normal lines) the greater the selectivity. […]
# (§3) With this information, we synthesized and tested a series of small molecules derived in conception from the oxalamide and chromone scaffold including N-acyl ureas, as shown in Tables 6-8. Each compound was tested in a 12-point dose-response study starting at 50 micromolar and decreasing in 3-fold increments to sub-nanomolar concentrations, in duplicate. Additionally, one or more additional cell line was tested in the same way.
# [2] = tested on: HBEC30KT; assay: Cell viability (ATP, Cell Titer Glo, 4 days), HBEC30KT; format: cell-based, human; conditions: Homo sapiens, Tables 3 and 4; read-out: HBEC30KT IC50
# Method: as §1, §2
# [3] = tested on: HCC44; assay: Cell viability dose-response, HCC44; format: cell-based, human; conditions: read-out: IC50 (uM) vs indicated non-small cell lung cancer cell line HCC44
# How it was run: (§4)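 Read-out is total cellular ATP, measured with CellTiter-Glo after four days of compound treatment. Cells start at 15% confluence in RPMI-1640 containing 5% FBS and 2 mM L-glutamine. Each point averages two replicates (±SEM).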
# [4] = tested on: H2122; assay: Cell viability dose-response, H2122; format: cell-based, human; conditions: read-out: IC50 (uM) vs indicated non-small cell lung cancer cell line H2122
# How it was run: (§5)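 Cells plated at 15% confluence in RPMI-1640 with 5% FBS and 2 mM L-glutamine, treated with compound in a 12-point, 3-fold dilution series from 50 micromolar, in duplicate. ATP measured by Cell Titer Glo after 4 days; IC50 taken from the dose-response curve.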
# [5] = tested on: H2009; assay: Cell viability dose-response, H2009; format: cell-based, human; conditions: Homo sapiens, NCI-H2009; Tables 3 and 4; read-out: IC50 (uM) vs indicated non-small cell lung cancer cell line H2009
# How it was run: as §4
# [6] = tested on: H1155; assay: Cell viability dose-response, H1155; format: cell-based; conditions: Homo sapiens, NCI-H1155; Tables 3 and 4; read-out: IC50 (uM) vs indicated non-small cell lung cancer cell line H1155
# Method: as §1, §2, §3
# [7] = tested on: H1993; assay: Cell viability dose-response, H1993; format: cell-based; conditions: Homo sapiens, NCI-H1993; Tables 3 and 4; read-out: IC50 (uM) vs indicated non-small cell lung cancer cell line H1993
# Method: as §1, §2, §3
# [8] = tested on: HCC95; assay: Cell viability dose-response, HCC95; format: cell-based; conditions: Homo sapiens, Tables 3 and 4, read-out: IC50 (uM) vs indicated non-small cell lung cancer cell line HCC95
# Method: as §1, §2, §3
# [9] = tested on: H2073; assay: Cell viability dose-response, H2073; format: cell-based, human; conditions: read-out: IC50 (uM) vs indicated non-small cell lung cancer cell line H2073
# Method: as §1, §2, §3
# [10] = tested on: H1819; assay: Cell viability dose-response, H1819; format: cell-based, human; conditions: Homo sapiens, NCI-H1819, Tables 3 and 4; read-out: IC50 (uM) vs indicated non-small cell lung cancer cell line H1819
# How it was run: as §5
# [11] = tested on: H460; assay: Cell viability dose-response, H460; format: cell-based; conditions: Homo sapiens, NCI-H460; Tables 3 and 4; read-out: IC50 (uM) vs indicated non-small cell lung cancer cell line H460
# Method: as §1, §2, §3
# [12] = Homo sapiens, HCC44, Tables 3 and 4
# [13] = Homo sapiens, NCI-H2122, Tables 3 and 4
# [14] = Homo sapiens, NCI-H2073, Tables 3 and 4
structure (smiles),measurement,setting,value
NC(=O)c1ccccc1NC(=O)c1sc2ccccc2c1Cl [SW119800],IC50,[1],467 µM
same,IC50,[2],85.4 µM
same,IC50,[3]; [12],206 µM
same,IC50,[4]; [13],2.66 µM
NC(=O)c1c(NC(=O)COc2ccccc2)sc2c1CCCC2 [SW119324],IC50,[2],10.4 µM
same,IC50,[5],0.881 µM
same,IC50,[6],44.5 µM
same,IC50,[7],> 8 µM
same,IC50,[8],28.5 µM
same,IC50,[3]; [12],34.4 µM
COc1ccc(C(=O)Nc2nc3ccccc3s2)cc1 [SW003087],IC50,[2],100 µM
same,IC50,[5],31.3 µM
same,IC50,[9]; [14],11.7 µM
same,IC50,[10],37.4 µM
same,IC50,[4]; [13],2.62 µM
Cc1cc2sc(N)nc2cc1[N+](=O)[O-] [SW202740],IC50,[2],129 µM
same,IC50,[5],111 µM
same,IC50,[9]; [14],114 µM
same,IC50,[10],82.5 µM
CCOC(=O)c1c(NC(=O)c2ccc([N+](=O)[O-])cc2)sc2c1CCCC2 [SW108364-2],IC50,[1],35.2 µM
same,IC50,[2],35.2 µM
same,IC50,[5],15.8 µM
same,IC50,[7],23.4 µM
same,IC50,[9]; [14],24.3 µM
same,IC50,[3]; [12],35.2 µM
same,IC50,[4]; [13],5.92 µM
CCOC(=O)c1c(NC(=O)c2ccc(F)cc2)sc2c1CCCC2 [SW202859-1],IC50,[2],38.2 µM
same,IC50,[7],47.1 µM
same,IC50,[8],31.4 µM
Cc1ccc(NC(=O)c2sc3ccccc3c2Cl)c(F)c1 [SW202551],IC50,[1],390 µM
same,IC50,[3]; [12],1.42 µM
same,IC50,[4]; [13],1.36 µM
COC(=O)c1ccc(C(=O)Nc2nc3ccc(N)cc3s2)cc1 [SW001296],IC50,[11],4.46 µM
same,IC50,[9]; Tables 3 and 4,3.72 µM
same,IC50,[3]; [12],0.34 µM
same,IC50,[4]; [13],35.1 µM
COc1ccc2nc(NS(=O)(=O)c3ccc([N+](=O)[O-])cc3)sc2c1 [SW166933],IC50,[2],4950 µM
same,IC50,[9]; [14],55.4 µM
same,IC50,[10],55.2 µM
same,IC50,[4]; [13],490 µM
O=C(Nc1ccccc1N1CCCC1)c1sc2ccccc2c1Cl [SW174698],IC50,[1],403 µM
same,IC50,[2],4950 µM
same,IC50,[3]; [12],3.06 µM
same,IC50,[4]; [13],5.12 µM
COc1cccc(C(=O)Nc2nc3ccc(OC)cc3s2)c1 [SW202747],IC50,[2],29.5 µM
same,IC50,[5],21.2 µM
same,IC50,[9]; [14],10.3 µM
same,IC50,[10],20.5 µM
same,IC50,[4]; [13],0.306 µM
COC(=O)c1ccc(C(=O)Nc2nc3cc(N)ccc3s2)cc1 [SW004400],IC50,[2],74.3 µM
same,IC50,[5],77.5 µM
same,IC50,[9]; [14],182 µM
same,IC50,[10],54.6 µM
same,IC50,[4]; [13],297 µM
COc1ccc2nc(NC(=O)c3ccc(F)cc3)sc2c1 [SW008027],IC50,[2],32.2 µM
same,IC50,[5],24.6 µM
same,IC50,[9]; [14],5.1 µM
same,IC50,[10],67.3 µM
same,IC50,[4]; [13],0.899 µM
COc1ccccc1NC(=O)c1sc2ccccc2c1Cl [SW004989],IC50,[1],249 µM
same,IC50,[5],> 8 µM
same,IC50,[7],> 5 µM
same,IC50,[9]; [14],0.052 µM
same,IC50,[10],43.7 µM
same,IC50,[3]; [12],56.8 µM
same,IC50,[3]; Tables 3 and 4,38.7 µM
same,IC50,[4]; [13],0.801 µM
same,IC50,[4]; Tables 3 and 4,1.02 µM
COc1ccc2nc(NC(=O)c3c(F)ccc(OC)c3F)sc2c1 [SW202775-1],IC50,[11],48 µM
same,IC50,[6],35.5 µM
same,IC50,[7],8.87 µM
same,IC50,[9]; [14],5.96 µM
same,IC50,[8],3.19 µM
same,IC50,[3]; [12],16.9 µM
same,IC50,[4]; [13],6.53 µM
O=C(Nc1ccc(F)cc1)c1sc2ccccc2c1Cl [SW006505],IC50,[1],262 µM
same,IC50,[2],63.9 µM
same,IC50,[3]; [12],0.657 µM
same,IC50,[4]; [13],1.7 µM
CCOc1cc(OCC)cc(C(=O)Nc2nc3ccc(OC)cc3s2)c1 [SW202776-1],IC50,[5],15.3 µM
same,IC50,[6],46.2 µM
same,IC50,[9]; [14],4.56 µM
same,IC50,[8],8.15 µM
